Measured values as given in patent publication US12268671B2, “IL-8 inhibitors for use in the treatment of chemotherapy-induced peripheral neuropathy” (DOMPÉ FARMACEUTICI S.P.A., priority 2016, dated 2025).

Assays:
[1] = test system: Male Wistar rats; assay: Oxaliplatin-induced cold allodynia (acetone test); format: in vivo, rat; conditions: oxaliplatin model
Description: (§1) Male Wistar rats (200-250 g, Harlan Italy) were housed in a room with controlled temperature (22±1° C.), humidity (60±10%) and light (12 h per day); food and water were available ad libitum.
(§2) The rats received: • 1—four once a day intraperitoneal (i.p.) injections of either paclitaxel (Tocris, Italy) (2 mg/kg/day i.p.; cumulative dose of 8 mg/kg i.p.) or vehicle (saline, 1 ml/kg/day i.p.), administered on alternate days (days 0, 2, 4, and 6), as described in Polomano et al, Pain 2001, 94:293-294. Behavioral testing was performed prior to paclitaxel/vehicle administration (day-1), and again on days 5-7-10-14 following paclitaxel/vehicle injection; • or • 2—oxaliplatin (2.4 mg/kg) dissolved in 5% glucose solution which was administered intraperitoneally (i.p.) at a volume of 0.5 mL/rat, for 5 consecutive days every week for 3 weeks, as described in Cavaletti et al., Eur. J. Cancer, 2001 37, 2457-63. Behavioral testing was performed before oxaliplatin/vehicle administration (day-1), and at again on day 3-5-7-10-14-21 day following oxaliplatin/vehicle injection.
DF2726A (30 mg/kg/os) was dissolved in PBS and it was administrated, for 24 consecutive days starting 3 days before oxaliplatin administration and continuing for other 21 days after the first administration of oxaliplatin. During this period the compound was given 2 h after oxaliplatin treatment. Since DF2726A is a sodium salt it was dissolved at the concentration of 16 mg/ml, to reach the active drug dose of 30 mg/kg.
DF1681B was administered by continuous subcutaneous infusion using the ALZET osmotic pumps Model 2ML2 (Charles River). In order to obtain a rate of infusion of 8 mg/hr/kg as described by Cavalieri et al Int J Immunopathol Pharmacol, 2005, 18:475-86, DF1681B (9.37 g) was dissolved in sterile saline (25 ml) at a concentration of 375 mg/ml and vortexed for 10 min. Osmotic pumps were implanted under anesthesia (100 mg/kg ketamine and 10 mg/kg xylazine i.p.). Pumps were prepared according to Alzet instructions sheet. Briefly, pumps were filled with 2 ml of DF1681B solution or vehicle using sterile syringe. Finally, pumps were kept in water bath overnight in stove at 37° C. […]
(§3) Cold sensitivity was measured as the number of foot withdrawal responses after application of acetone to the dorsal surface of the paw (2). […] Cold responses were measured on both paws before (day −1) and, then on 5, 7, 10 and 14 days after paclitaxel/vehicle administration or on days 0, 5, 7, 10, 14 and 21 after oxalipaltin/vehicle administration.
(§4) All data were presented as the mean±SEM. The significance of differences between groups was determined by two-way analyses of variance (ANOVA) followed by Bonferroni post hoc tests for multiple comparisons. […]

[2] = test system: Male Wistar rats; assay: Oxaliplatin-induced mechanical allodynia (Dynamic Plantar Aesthesiometer); format: in vivo, rat; conditions: oxaliplatin model, days 14 and 21
Description: as §1
as §2, with “Behavioral testing was performed before oxaliplatin/vehicle administration (day-1), and at again on day 3-5-7-10-14-21 day following oxaliplatin/vehicle injection.” left out
To assess the development of mechanical allodynia, sensitivity to tactile stimulation was measured using the Dynamic Plantar Aesthesiometer (DPA, Ugo Basile, Italy). […]
as §4

[3] = test system: Male Wistar rats; assay: Paclitaxel-induced cold allodynia (acetone test); format: in vivo, rat; conditions: paclitaxel model
Description: as §1, §2
(§5) DF2726A (30 mg/kg) (5 mg/1 ml, 0.5 ml/os/rat) was dissolved in 10% SOLUTOL-HS15 and N-methylpyrrolidone (NMP) (SOLUTOL:NMP 2:1 w/v) and 90% PBS 1×, and was administered once a day from day −3 up to day 11 after paclitaxel administration. Anti-allodynic effects were assessed on day 5, 7, 10 and 14 after paclitaxel administration. Control animals received vehicle (10% SOLUTOL-NMP 2:1 w/v and PBS, 5 mg/1 ml; 0.5 m1/os/rat).
(§6) DF1681B was administered by continuous subcutaneous infusion using the ALZET osmotic pumps Model 2ML2 (Charles River). In details, DF1681B (9.37 g) was dissolved in sterile saline (25 ml) at a concentration of 375 mg/ml and vortexed for 10 min. Osmotic pumps were implanted under anesthesia (100 mg/kg ketamine and 10 mg/kg xylazine i.p.) through a surgical incision between the scapulae. Pumps were implanted 3 days before first paclitaxel injection (day-3). Drug delivery was carried out continuously until day +11. Control animals received vehicle (sterile saline).
as §3, with “(2). A drop of acetone was applied to the dorsal surface of paws with a syringe connected to a thin polyethylene tube while the rats was standing on a metal mesh.” for “(2).”
as §4

[4] = test system: Male Wistar rats; assay: Paclitaxel-induced mechanical allodynia (Dynamic Plantar Aesthesiometer); format: in vivo, rat; conditions: paclitaxel model
Description: as §1, §2, §5, §6
To assess the development of mechanical allodynia, sensitivity to tactile stimulation was measured using the Dynamic Plantar Aesthesiometer (DPA, Ugo Basile, Italy). Animals were placed in a chamber with a mesh metal floor covered by a plastic dome that enabled the animal to walk freely, but not to jump. The mechanical stimulus were then delivered in the mid-plantar skin of the hind paw. The cut-off was fixed at 50 g. […]
as §4

[5] = test system: F-11 cell line; assay: Paclitaxel-induced cytoskeleton modifications, immunofluorescence in differentiated F11 neurons; format: cell-based, mouse/rat; conditions: 24 hours
Description: In this study, the effects of paclitaxel, administered alone or in combination with reparixin (DF1681Y; R-(−)-2-(4-isobutylphenyl)propionyl methanesulfonamide) dissolved in aqueous solution of lysine to form the in situ salt, on the cytoskeleton components and organization was performed. As experimental model, a F-11 cell line, a fusion product of mouse neuroblastoma cell line N18TG-2 cells with embryonic rat dorsal root ganglia sensory neurons, was used. These cells were selected because of the presence of neuronal markers and properties that are unique to the parental rat sensory neurons.
F11 (ECACC, Salisbury, UK) cells were cultivated DMEM (Euroclone, MI, Italy) medium supplemented with 10% FBS, USA origin, (Sigma-Aldrich St. Louis, CO, USA), 1% penicillin/streptomycin (Euroclone) and 1% glutamine (Euroclone). After, cells were differentiated with mouse NGF (mNGF) dissolved in DMEM with 1% penicillin/streptomycin and 1% glutamine (FBS free) at the final concentration 50 ng/ml. Medium was replaced every 3 days until complete differentiation, occurred after 7 days. Neurons were not treated (controls) or treated for 24 hours with reparixin [10 μM final concentration], paclitaxel (Sigma-Aldrich) [10 nM final concentration] and the combination of the two molecules.
Cells were fixed in paraformaldehyde 4% in PBS for 20 min at RT and permeabilized in methanol for 5 min at −20° C. Cells were then blocked with PBS containing 4% BSA for 30 min and incubated with primary antibodies diluted in the blocking solution overnight at 4° C.: rabbit β-tubulin (Abcam, Cambridge, UK) 1:500; mouse α-tubulin (Abcam) 1:200 and mouse α-tubulin acetylated (Abcam) 1:1000. Cells were then rinsed in PBS several times before incubation with secondary antibodies, goat anti rabbit conjugated with Alexafluor 633 (1:2000), and goat anti mouse conjugated with Alexafluor 488 (1:2000), (Life Technologies, CA, USA) for 30 min at RT. After extensive washing coverslips were mounted with Vectashield mounting medium with DAPI (Vector Laboratories Burlingame, CA, USA) and then observed at confocal laser microscope.

[6] = DF1681B continuous subcutaneous infusion from day -3 to day +11, day 14
[7] = DF2726A 30 mg/kg os once a day from day -3 to day 11, day 14 (after end of treatment)
[8] = DF2726A 30 mg/kg os once a day from day -3 to day 11, days 5 (P<0.05), 7 (P<0.001), 10 (P<0.001)
[9] = reparixin 10 μM in combination with paclitaxel 10 nM

For `CC(C)Cc1ccc([C@@H](C)C(=O)NS(C)(=O)=O)cc1` [DF1681B, R(−)-2-(4-isobutylphenyl)propionyl methansulfonamide], the “cold allodynia (number of paw withdrawals)” value ([1]; DF1681B continuous subcutaneous infusion 8 mg/hr/kg from day -3, day 3) was “did not show antiallodynic effect”, the “cold allodynia (number of paw withdrawals)” value ([1]; DF1681B continuous subcutaneous infusion 8 mg/hr/kg from day -3, days 5, 7, 10, 14, 21) was “significant reduction of cold allodynia” and the “mechanical allodynia (paw withdrawal threshold)” value ([2]; DF1681B continuous subcutaneous infusion 8 mg/hr/kg from day -3) was “significant antiallodynic effect”. For the same molecule, the “cold allodynia (number of paw withdrawals) vs animals treated with vehicle” value (“cold allodynia … vs animals treated with vehicle” below) [3, 6] was “No additional antiallodynic effect”, the “cold allodynia … vs animals treated with vehicle” value ([3]; DF1681B continuous subcutaneous infusion from day -3 to day +11, days 5 (P<0.01), 7 (P<0.001), 10 (P<0.001)) was “significant reduction of cold allodynia” and the “mechanical allodynia (paw withdrawal threshold) vs animals treated with vehicle” value ([4]; DF1681B continuous subcutaneous infusion by osmotic pump from day -3 to day +11, days 5 (P<0.01), 7 (P<0.001), 10 (P<0.001)) was “significant reduction of mechanical allodynia”. For the same molecule, the “mechanical allodynia (paw withdrawal threshold) vs animals treated with vehicle” value [4, 6] was “No additional antiallodynic effect”.
In the case of `CC(=O)O[C@H]1C(=O)[C@@]2(C)[C@H]([C@H](OC(=O)c3ccccc3)[C@]3(O)C[C@H](OC(=O)[C@H](O)[C@@H](NC(=O)c4ccccc4)c4ccccc4)C(C)=C1C3(C)C)[C@]1(OC(C)=O)CO[C@@H]1C[C@@H]2O` [paclitaxel, reference compound], the “acetylated α-tubulin (marker of stable microtubules), immunofluorescence” value ([5]; paclitaxel 10 nM alone) is reported as “increased acetylated α-tubulin”, the “fluorescence intensity of β-tubulin” value ([5]; paclitaxel 10 nM alone) is reported as “decrease of the fluorescence intensity of β-tubulin” and the neurite diameter ([5]; paclitaxel 10 nM alone) is reported as “increase of neurite diameter”.
`CC(C)(C(=O)[O-])c1ccc(Nc2nc(C(F)(F)F)cs2)cc1.[Na+]` [DF2726A, 2-methyl-2-(4-{[4-(trifluoromethyl)-1,3-thiazol-2-yl]amino}phenyl)propanoic acid sodium salt] was tested, and the “cold allodynia (number of paw withdrawals)” value ([1]; DF2726A 30 mg/kg/os for 24 consecutive days from day -3, day 3) was “did not show antiallodynic effect”, the “cold allodynia (number of paw withdrawals)” value ([1]; DF2726A 30 mg/kg/os for 24 consecutive days from day -3, days 5, 7, 10, 14, 21) was “significant reduction of cold allodynia” and the “mechanical allodynia (paw withdrawal threshold)” value ([2]; DF2726A 30 mg/kg/os for 24 consecutive days from day -3) was “significant antiallodynic effect”. For the same molecule, the “cold allodynia … vs animals treated with vehicle” value [3, 7] was “No additional antiallodynic effect”, the “cold allodynia … vs animals treated with vehicle” value [3, 8] was “significant reduction of cold allodynia” and the “mechanical allodynia (paw withdrawal threshold) vs animals treated with vehicle” value [4, 7] was “No additional significant antiallodynic effect”. For the same molecule, the “mechanical allodynia (paw withdrawal threshold) vs animals treated with vehicle” value [4, 8] was “significant reduction of mechanical allodynia”.
With `CC(C)Cc1ccc([C@@H](C)C(=O)NS(C)(=O)=O)cc1` [reparixin, R-(−)-2-(4-isobutylphenyl)propionyl methanesulfonamide] the “acetylated α-tubulin (marker of stable microtubules), immunofluorescence” value [5, 9] was “acetylated α-tubulin appears similar to the control”, the “increased neurite thickness induced by paclitaxel treatment” value [5, 9] was “able to abolish” and the “α-tubulin and β-tubulin immunofluorescence (dimer formation)” value [5, 9] was “able to counteract the effect of paclitaxel alone on dimer formation”.
